In patent publication US20190292189A1, “LIM KINASE INHIBITORS” (VIRONGY, LLC, priority 2016, published 2019):
pIC50: −log10 of the molar value. Like-named read-outs stand apart in the source and are kept apart here. Values belong to the compound of their own block, whether it stands above or below them.

Legend:
[1] = Microsomal stability, rat liver microsomes; assay type: in vitro ADME; details: rat liver microsomes
ROCK-I = ROCK-I (Homo sapiens, UniProt Q13464); experiment: ROCK-I biochemical counter-screen; details: Table 6; read-out: Biochemical Inhibition IC50 (nM) ROCK-I
P450 1A2 = molecular target: T1, P450 1A2 (Homo sapiens, UniProt P05177); details: 10 μM
T1 sequence (P05177 1-516): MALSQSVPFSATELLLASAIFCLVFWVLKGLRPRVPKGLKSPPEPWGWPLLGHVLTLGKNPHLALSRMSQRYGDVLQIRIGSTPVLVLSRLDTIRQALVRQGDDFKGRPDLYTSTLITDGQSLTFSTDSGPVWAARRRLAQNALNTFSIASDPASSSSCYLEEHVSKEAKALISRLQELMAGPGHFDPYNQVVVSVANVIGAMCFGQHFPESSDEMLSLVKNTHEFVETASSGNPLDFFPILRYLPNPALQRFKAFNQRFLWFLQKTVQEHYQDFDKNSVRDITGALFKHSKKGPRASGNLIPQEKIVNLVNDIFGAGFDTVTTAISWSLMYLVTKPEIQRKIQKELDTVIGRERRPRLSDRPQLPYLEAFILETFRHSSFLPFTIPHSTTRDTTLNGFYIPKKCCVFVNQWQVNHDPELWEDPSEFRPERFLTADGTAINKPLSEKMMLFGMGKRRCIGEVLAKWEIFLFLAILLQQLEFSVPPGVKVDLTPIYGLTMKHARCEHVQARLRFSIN

P450 3A4 = P450 3A4 (Homo sapiens, UniProt P08684); experiment: P450 inhibition at 10 μM; assay type: in vitro ADME
P450 2C9 = P450 2C9 (Homo sapiens, UniProt P11712); experiment: P450 inhibition at 10 μM; assay type: in vitro ADME
Limk1 = Limk1 (Homo sapiens, UniProt P53667); experiment: Limk1 biochemical assay (Reaction Biology, 10-dose IC50); design: His; purchased Reaction Biology Corporation; host or cells: insect cells; details: for IC50: means of ≥2 experiments, read-out: IC50 (nM) Limk1; for pIC50: read-out: Limk1 IC50; for Limk1 inhibition: compared with 14a, values only in FIG. 4
ROCK-II = ROCK-II (Homo sapiens, UniProt O75116); experiment: ROCK-II biochemical counter-screen; details: for IC50: means of ≥2 experiments, read-out: IC50 (nM) ROCK-II; for pIC50: read-out: ROCK-II IC50
[2] = Microsomal stability, human liver microsomes; assay type: in vitro ADME
P450 2D6 = P450 2D6 (Homo sapiens, UniProt P10635); experiment: P450 inhibition at 10 μM; assay type: in vitro ADME
[3] = Plasma pharmacokinetics studies on rats; details: rats; for AUC (iv) / Cl (iv) / T1/2 (iv) / Yd (iv) / Cmax: iv dosing 1 mg/kg; for F (%) (po): po dosing 2 mg/kg; for Cmax: read-out: Cmax (iv)
Protocol: In vivo pharmacokinetics (PK) studies were conducted for selected compounds during the whole optimization at various stages in order to identify structural elements that are favorable for in vivo applications, and/or to evaluate the feasibility of optimized Limk inhibitors for animal studies.

Sequence of ROCK-II (O75116 whole entry, species assumed): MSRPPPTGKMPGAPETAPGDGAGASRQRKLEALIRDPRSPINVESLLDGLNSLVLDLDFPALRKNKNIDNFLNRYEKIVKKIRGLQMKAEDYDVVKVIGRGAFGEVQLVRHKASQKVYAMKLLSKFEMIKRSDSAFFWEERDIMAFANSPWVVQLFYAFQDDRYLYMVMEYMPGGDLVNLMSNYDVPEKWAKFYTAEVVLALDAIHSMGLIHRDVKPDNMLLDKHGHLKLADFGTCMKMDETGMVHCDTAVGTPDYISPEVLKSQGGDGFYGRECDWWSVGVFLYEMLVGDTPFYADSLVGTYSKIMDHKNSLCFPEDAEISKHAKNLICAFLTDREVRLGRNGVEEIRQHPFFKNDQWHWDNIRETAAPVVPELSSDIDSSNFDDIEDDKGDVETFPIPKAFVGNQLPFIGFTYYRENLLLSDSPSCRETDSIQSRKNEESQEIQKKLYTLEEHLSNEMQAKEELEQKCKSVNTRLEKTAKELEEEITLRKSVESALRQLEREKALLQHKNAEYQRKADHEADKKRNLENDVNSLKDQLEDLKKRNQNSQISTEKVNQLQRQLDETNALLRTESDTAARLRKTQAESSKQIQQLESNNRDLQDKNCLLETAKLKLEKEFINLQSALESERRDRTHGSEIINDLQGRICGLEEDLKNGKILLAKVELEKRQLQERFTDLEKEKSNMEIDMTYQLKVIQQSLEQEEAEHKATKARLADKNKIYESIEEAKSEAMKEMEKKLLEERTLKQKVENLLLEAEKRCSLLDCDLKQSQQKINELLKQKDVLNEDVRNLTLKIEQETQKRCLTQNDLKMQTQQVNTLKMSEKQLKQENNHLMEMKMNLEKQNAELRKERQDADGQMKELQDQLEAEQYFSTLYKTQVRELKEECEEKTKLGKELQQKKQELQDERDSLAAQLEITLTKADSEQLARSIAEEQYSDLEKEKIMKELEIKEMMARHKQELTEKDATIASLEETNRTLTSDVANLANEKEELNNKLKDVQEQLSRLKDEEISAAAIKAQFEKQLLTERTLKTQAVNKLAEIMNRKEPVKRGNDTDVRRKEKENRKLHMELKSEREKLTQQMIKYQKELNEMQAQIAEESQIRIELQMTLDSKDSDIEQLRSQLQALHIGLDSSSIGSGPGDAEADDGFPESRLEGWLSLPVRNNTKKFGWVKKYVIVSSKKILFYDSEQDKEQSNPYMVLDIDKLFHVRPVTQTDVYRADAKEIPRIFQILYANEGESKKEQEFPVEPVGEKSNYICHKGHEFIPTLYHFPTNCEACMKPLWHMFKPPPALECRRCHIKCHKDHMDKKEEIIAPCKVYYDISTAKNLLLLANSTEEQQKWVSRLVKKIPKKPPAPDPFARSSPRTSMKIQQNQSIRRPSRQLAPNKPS
Sequence of Limk1 (P53667 285-638): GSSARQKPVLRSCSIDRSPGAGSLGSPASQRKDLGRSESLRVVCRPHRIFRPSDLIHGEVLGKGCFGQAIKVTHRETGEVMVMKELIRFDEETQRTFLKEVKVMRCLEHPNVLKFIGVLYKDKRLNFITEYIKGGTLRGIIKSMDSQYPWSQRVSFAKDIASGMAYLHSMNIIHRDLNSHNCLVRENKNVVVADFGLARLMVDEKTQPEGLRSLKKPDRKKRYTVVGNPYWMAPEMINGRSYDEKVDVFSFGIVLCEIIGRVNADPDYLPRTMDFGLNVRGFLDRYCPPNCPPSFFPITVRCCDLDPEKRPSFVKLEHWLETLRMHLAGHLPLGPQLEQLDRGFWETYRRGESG
Sequence of P450 2D6 (P10635 whole entry): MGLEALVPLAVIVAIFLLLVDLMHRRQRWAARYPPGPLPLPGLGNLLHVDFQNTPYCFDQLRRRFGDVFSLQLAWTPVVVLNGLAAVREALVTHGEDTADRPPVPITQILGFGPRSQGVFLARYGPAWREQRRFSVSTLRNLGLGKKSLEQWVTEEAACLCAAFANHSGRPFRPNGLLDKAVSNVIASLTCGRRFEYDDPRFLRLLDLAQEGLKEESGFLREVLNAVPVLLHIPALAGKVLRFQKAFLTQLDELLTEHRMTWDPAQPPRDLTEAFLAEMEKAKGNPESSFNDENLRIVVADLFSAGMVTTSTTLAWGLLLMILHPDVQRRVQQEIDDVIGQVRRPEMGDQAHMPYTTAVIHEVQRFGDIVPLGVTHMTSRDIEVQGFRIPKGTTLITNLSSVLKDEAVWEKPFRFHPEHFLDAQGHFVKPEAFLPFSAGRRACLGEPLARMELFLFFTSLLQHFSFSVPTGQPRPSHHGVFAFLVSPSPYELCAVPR
Sequence of ROCK-I (Q13464 whole entry, species assumed): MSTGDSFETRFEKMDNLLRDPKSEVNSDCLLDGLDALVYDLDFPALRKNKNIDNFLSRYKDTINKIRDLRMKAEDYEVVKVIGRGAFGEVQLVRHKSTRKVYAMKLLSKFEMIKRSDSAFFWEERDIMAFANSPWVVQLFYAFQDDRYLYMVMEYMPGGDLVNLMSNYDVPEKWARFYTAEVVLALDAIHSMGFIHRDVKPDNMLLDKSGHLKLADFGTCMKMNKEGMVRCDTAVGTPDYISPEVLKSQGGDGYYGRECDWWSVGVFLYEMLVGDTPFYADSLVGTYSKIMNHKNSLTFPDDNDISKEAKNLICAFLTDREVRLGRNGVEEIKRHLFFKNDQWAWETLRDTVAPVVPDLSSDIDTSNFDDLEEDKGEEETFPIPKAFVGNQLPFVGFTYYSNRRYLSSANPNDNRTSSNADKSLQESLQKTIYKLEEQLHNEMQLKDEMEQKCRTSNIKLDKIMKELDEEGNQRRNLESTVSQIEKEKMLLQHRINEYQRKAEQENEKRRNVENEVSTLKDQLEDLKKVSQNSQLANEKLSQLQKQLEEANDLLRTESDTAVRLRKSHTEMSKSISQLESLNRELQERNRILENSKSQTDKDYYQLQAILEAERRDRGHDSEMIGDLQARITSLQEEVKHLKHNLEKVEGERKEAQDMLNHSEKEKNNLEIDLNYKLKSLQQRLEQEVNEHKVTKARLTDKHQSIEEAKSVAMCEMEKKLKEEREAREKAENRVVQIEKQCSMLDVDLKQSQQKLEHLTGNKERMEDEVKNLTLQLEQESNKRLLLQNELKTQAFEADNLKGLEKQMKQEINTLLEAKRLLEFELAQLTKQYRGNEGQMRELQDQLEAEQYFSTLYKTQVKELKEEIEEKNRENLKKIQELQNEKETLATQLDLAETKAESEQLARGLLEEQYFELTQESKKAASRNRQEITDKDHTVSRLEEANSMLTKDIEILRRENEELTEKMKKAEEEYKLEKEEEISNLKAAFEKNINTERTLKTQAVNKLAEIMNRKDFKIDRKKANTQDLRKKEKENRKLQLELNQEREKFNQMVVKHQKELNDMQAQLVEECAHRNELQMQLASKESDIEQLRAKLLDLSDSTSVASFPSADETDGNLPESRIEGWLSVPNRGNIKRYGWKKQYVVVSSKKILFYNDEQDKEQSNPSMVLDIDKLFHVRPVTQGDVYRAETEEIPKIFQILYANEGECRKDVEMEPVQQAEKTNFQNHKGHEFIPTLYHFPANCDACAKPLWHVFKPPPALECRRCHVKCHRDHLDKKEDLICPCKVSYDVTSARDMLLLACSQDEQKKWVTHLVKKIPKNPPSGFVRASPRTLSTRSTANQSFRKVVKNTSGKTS
Sequence of P450 2C9 (P11712 whole entry): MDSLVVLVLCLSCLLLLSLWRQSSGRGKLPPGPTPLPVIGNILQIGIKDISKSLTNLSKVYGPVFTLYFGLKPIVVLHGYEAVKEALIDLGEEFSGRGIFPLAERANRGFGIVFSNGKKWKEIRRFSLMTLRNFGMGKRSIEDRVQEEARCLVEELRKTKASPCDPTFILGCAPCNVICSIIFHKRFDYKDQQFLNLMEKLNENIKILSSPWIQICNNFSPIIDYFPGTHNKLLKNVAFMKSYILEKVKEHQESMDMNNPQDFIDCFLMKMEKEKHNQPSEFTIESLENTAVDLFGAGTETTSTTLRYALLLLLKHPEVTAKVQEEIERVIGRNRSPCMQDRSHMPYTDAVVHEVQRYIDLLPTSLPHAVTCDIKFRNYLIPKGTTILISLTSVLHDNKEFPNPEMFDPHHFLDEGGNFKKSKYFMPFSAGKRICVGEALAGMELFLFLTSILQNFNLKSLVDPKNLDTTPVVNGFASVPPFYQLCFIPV
Sequence of P450 3A4 (P08684 whole entry): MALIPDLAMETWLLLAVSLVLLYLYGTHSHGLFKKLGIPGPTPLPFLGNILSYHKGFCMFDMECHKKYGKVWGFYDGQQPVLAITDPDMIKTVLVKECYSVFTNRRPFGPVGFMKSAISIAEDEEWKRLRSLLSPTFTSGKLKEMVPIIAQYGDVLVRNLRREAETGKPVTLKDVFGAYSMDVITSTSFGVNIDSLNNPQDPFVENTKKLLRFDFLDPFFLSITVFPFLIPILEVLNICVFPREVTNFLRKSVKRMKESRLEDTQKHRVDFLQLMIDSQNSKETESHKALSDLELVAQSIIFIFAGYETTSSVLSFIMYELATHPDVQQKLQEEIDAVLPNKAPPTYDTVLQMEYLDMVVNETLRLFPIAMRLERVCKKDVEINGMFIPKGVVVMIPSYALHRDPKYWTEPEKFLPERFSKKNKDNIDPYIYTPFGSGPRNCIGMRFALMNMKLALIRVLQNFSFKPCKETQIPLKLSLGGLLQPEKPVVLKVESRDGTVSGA

SMILES: COc1ccc(N(CCN)C(=O)Nc2ccc(-c3ncnc4[nH]cc(C)c34)cc2)cc1 [Compound 18o, 1-(2-Aminoethyl)-1-(4-methoxyphenyl)-3-(4-(5-methyl-7H-pyrrolo[2,3-d]pyrimidin-4-yl)phenyl)urea]
- IC50 (Limk1; Table 4): 27 nM
- AUC (iv) [3]: 1.1 µM·h
- Cl (iv) [3]: 36.0 mL/min/kg
- T1/2 (iv) [3]: 4.6 h
- Yd (iv) [3]: 6.0 L/kg
- F (%) (po) [3]: 0%
- Cmax [3]: 2.2 µM

SMILES: CC(C)NC(=O)c1cccc(NC(=O)Nc2ccc(-c3ccnc(N)n3)cc2)c1 [Compound 7c, 3-(3-(4-(2-Aminopyrimidin-4-yl)phenyl)ureido)-N-isopropylbenzamide]
- IC50 (Limk1; Table 1): > 10000 nM
- IC50 (ROCK-II; Table 1): 166 nM

SMILES: COc1ccccc1NC(=O)Nc1ccc(-c2ncnc3[nH]cc(C)c23)cc1 [Compound 10c, 1-(2-Methoxyphenyl)-3-(4-(5-methyl-7H-pyrrolo[2,3-d]pyrimidin-4-yl)phenyl)urea]
- pIC50 (Limk1): 6.55
- IC50 (ROCK-II; Table 3): 6650 nM

SMILES: Cc1c[nH]c2ncnc(-c3ccc(NC(=O)Nc4cccc(C(=O)NC(C)C)c4)cc3)c12 [Compound 7g, N-Isopropyl-3-(3-(4-(5-methyl-7H-pyrrolo[2,3-d]pyrimidin-4-yl)phenyl)ureido)benzamide]
- AUC (iv) [3]: 4.3 µM·h
- Cl (iv) [3]: 9.0 mL/min/kg
- T1/2 (iv) [3]: 1.0 h
- Yd (iv) [3]: 0.3 L/kg
- F (%) (po) [3]: 0%
- Cmax [3]: 8.5 µM

SMILES: Cc1c[nH]c2ncnc(-c3ccc(NC(=O)Nc4cccc(F)c4)cc3)c12 [Compound 10b, 1-(3-Fluorophenyl)-3-(4-(5-methyl-7H-pyrrolo[2,3-d]pyrimidin-4-yl)phenyl)urea]
- pIC50 (Limk1): 6.50
- IC50 (ROCK-II; Table 3): 5420 nM

SMILES: CC(C)NC(=O)c1cccc(NC(=O)Nc2ccc(-c3cn[nH]c3)cc2)c1 [Compound 7a, 3-(3-(4-(1H-pyrazol-4-yl)phenyl)ureido)-N-isopropylbenzamide]
- IC50 (Limk1; Table 1): > 10000 nM
- IC50 (ROCK-II; Table 1): 45 nM

SMILES: COc1cccc(NC(=O)Nc2ccc(-c3ncnc4[nH]cc(C)c34)cc2)c1 [Compound 10d, 1-(3-Methoxyphenyl)-3-(4-(5-methyl-7H-pyrrolo[2,3-d]pyrimidin-4-yl)phenyl)urea]
- IC50 (Limk1; Table 3): 75 nM
- IC50 (ROCK-II; Table 3): 2570 nM

SMILES: Cc1c[nH]c2ncnc(-c3ccc(NC(=O)Nc4ccccc4)cc3)c12 [Compound 10a, 1-(4-(5-Methyl-7H-pyrrolo[2,3-d]pyrimidin-4-yl)phenyl)-3-phenylurea]
- pIC50 (Limk1): 6.85
- pIC50 (ROCK-II): 5.63
- AUC (iv) [3]: 14.3 µM·h
- Cl (iv) [3]: 3.4 mL/min/kg
- T1/2 (iv) [3]: 1.6 h
- Yd (iv) [3]: 0.5 L/kg
- F (%) (po) [3]: 16%
- Cmax [3]: 7 µM

SMILES: Cc1cc2c(-c3ccc(NC(=O)Nc4cccc(C(=O)NC(C)C)c4)cc3)ncnc2[nH]1 [Compound 7h, N-Isopropyl-3-(3-(4-(6-methyl-7H-pyrrolo[2,3-d]pyrimidin-4-yl)phenyl)ureido)benzamide]
- IC50 (Limk1; Table 1): 80 nM
- IC50 (ROCK-II; Table 1): > 10000 nM

SMILES: CC(C)NC(=O)c1cccc(NC(=O)Nc2ccc(-c3ccncc3)cc2)c1 [Compound 7b, N-Isopropyl-3-(3-(4-(pyridin-4-yl)phenyl)ureido)benzamide]
- IC50 (Limk1; Table 1): > 10000 nM
- IC50 (ROCK-II; Table 1): 90 nM

SMILES: CC(C)NC(=O)c1cccc(NC(=O)Nc2ccc(-c3ncnc4[nH]ccc34)cc2)c1 [Compound 3, 3-(3-(4-(7H-pyrrolo[2,3-d]pyrimidin-4-yl)phenyl)ureido)-N-isopropylbenzamide]
- pIC50 (Limk1): 6.70
- IC50 (ROCK-II; Table 1): 1360 nM

SMILES: COc1ccc(NC(=O)Nc2ccc(-c3ncnc4[nH]cc(C)c34)cc2)cc1 [Compound 10e, 1-(4-Methoxyphenyl)-3-(4-(5-methyl-7H-pyrrolo[2,3-d]pyrimidin-4-yl)phenyl)urea]
- IC50 (ROCK-II; Table 3): > 10000 nM
- pIC50 (ROCK-II): < 5.00

Further lines, results first:

- Microsomal Stability t1/2 (min) Rat [1]: >120 min
- IC50 (ROCK-I): > 20000 nM
- P450 % inh. at 10 μM 1A2 (P450 1A2): 77%
- P450 % inh. at 10 μM 3A4 (P450 3A4): 42%
- P450 % inh. at 10 μM 2C9 (P450 2C9): 42%
- IC50 (Limk1; Table 1): 80 nM
- IC50 (ROCK-II; Table 1): > 10000 nM
- Microsomal Stability t1/2 (min) Human [2]: 47 min
- P450 % inh. at 10 μM 2D6 (P450 2D6): 34%
SMILES: Cc1[nH]c2ncnc(-c3ccc(NC(=O)Nc4cccc(C(=O)NC(C)C)c4)cc3)c2c1C [Compound 7i, 3-(3-(4-(5,6-Dimethyl-7H-pyrrolo[2,3-d]pyrimidin-4-yl)phenyl)ureido)-N-isopropylbenzamide]

- IC50 (ROCK-II; Table 4): > 10000 nM
SMILES: Cc1ccccc1N(CCO)C(=O)Nc1ccc(-c2ncnc3[nH]cc(C)c23)cc1 [Compound 18i, 1-(2-Hydroxyethyl)-3-(4-(5-methyl-7H-pyrrolo[2,3-d]pyrimidin-4-yl)phenyl)-1-o-tolylurea]

- IC50 (Limk1; Table 3): 4510 nM
- IC50 (ROCK-II; Table 3): > 10000 nM
SMILES: Cc1c[nH]c2ncnc(-c3ccc(NC(=O)Nc4ccccn4)cc3)c12 [Compound 10g, 1-[4-(5-Methyl-7H-pyrrolo[2,3-d]pyrimidin-4-yl)-phenyl]-3-pyridin-2-yl-urea]

- IC50 (ROCK-II; Table 4): > 10000 nM
- pIC50 (ROCK-II): < 5.00
SMILES: COc1ccc(N(CCN(C)C)C(=O)Nc2ccc(-c3ncnc4[nH]cc(C)c34)cc2)cc1 [Compound 18q, 1-(2-(Dimethylamino)ethyl)-1-(4-methoxyphenyl)-3-(4-(5-methyl-7H-pyrrolo[2,3-d]pyrimidin-4-yl)phenyl)urea]

- Limk1 inhibition (Limk1): even lower Limk1 inhibitions
SMILES: COc1ccc(NC(=O)N(CCN2CCCCC2)c2ccc(-c3ncnc4[nH]cc(C)c34)cc2)cc1 [Compound 14c, 3-(4-Methoxyphenyl)-1-(4-(5-methyl-7H-pyrrolo[2,3-d]pyrimidin-4-yl)phenyl)-1-(2-(piperidin-1-yl)ethyl)urea]

- IC50 (Limk1; Table 3): 203 nM
- IC50 (ROCK-II; Table 3): 2290 nM
SMILES: Cc1c[nH]c2ncnc(-c3ccc(NC(=O)Nc4nccs4)cc3)c12 [Compound 10f, 1-[4-(5-Methyl-7H-pyrrolo[2,3-d]pyrimidin-4-yl)-phenyl]-3-thiazol-2-yl-urea]

- IC50 (ROCK-II; Table 4): 1600 nM
SMILES: Cc1c[nH]c2ncnc(-c3ccc(NC(=O)N(CCO)c4ccccc4F)cc3)c12 [Compound 18c, 1-(2-Fluorophenyl)-1-(2-hydroxyethyl)-3-(4-(5-methyl-7H-pyrrolo[2,3-d]pyrimidin-4-yl)phenyl)urea]

- pIC50 (Limk1): 7.22
- pIC50 (ROCK-II): 6.01
SMILES: Cc1c[nH]c2ncnc(-c3ccc(NC(=O)Nc4cccc(C(=O)NC(C)C)c4)c(C(F)(F)F)c3)c12 [Compound 7j, N-Isopropyl-3-(3-(4-(5-methyl-7H-pyrrolo[2,3-d]pyrimidin-4-yl)-2-(trifluoromethyl)phenyl)ureido)-benzamide]

- IC50 (Limk1; Table 2): 710 nM
- IC50 (ROCK-II; Table 2): 7080 nM
SMILES: Cc1c[nH]c2ncnc(-c3ccc(NC(=O)Nc4cccc(C(=O)NC(C)C)c4)c(OCCN(C)C)c3)c12 [Compound 7l, 3-(3-(2-(2-(Dimethylamino)ethoxy)-4-(5-methyl-7H-pyrrolo[2,3-d]pyrimidin-4-yl)phenyl)ureido)-N-isopropylbenzamide]

- IC50 (ROCK-II; Table 4): 1900 nM
SMILES: Cc1c[nH]c2ncnc(-c3ccc(NC(=O)N(CCO)c4cccc(F)c4)cc3)c12 [Compound 18d, 1-(3-Fluorophenyl)-1-(2-hydroxyethyl)-3-(4-(5-methyl-7H-pyrrolo[2,3-d]pyrimidin-4-yl)phenyl)urea]

- pIC50 (Limk1): 5.96
SMILES: COc1ccc(NC(=O)N(C)c2ccc(-c3ncnc4[nH]cc(C)c34)cc2)cc1 [Compound 14a, 3-(4-Methoxyphenyl)-1-methyl-1-(4-(5-methyl-7H-pyrrolo[2,3-d]pyrimidin-4-yl)phenyl)urea]

- Limk1 inhibition (Limk1): even lower Limk1 inhibitions
SMILES: COc1ccc(NC(=O)N(CCN2CCCC2)c2ccc(-c3ncnc4[nH]cc(C)c34)cc2)cc1 [Compound 14b, 3-(4-Methoxyphenyl)-1-(4-(5-methyl-7H-pyrrolo[2,3-d]pyrimidin-4-yl)phenyl)-1-(2-(pyrrolidin-1-yl)ethyl)urea]

- IC50 (Limk1; Table 4): 151 nM
- IC50 (ROCK-II; Table 4): 8940 nM
SMILES: Cc1cccc(N(CCO)C(=O)Nc2ccc(-c3ncnc4[nH]cc(C)c34)cc2)c1 [Compound 18j, 1-(2-Hydroxyethyl)-3-(4-(5-methyl-7H-pyrrolo[2,3-d]pyrimidin-4-yl)phenyl)-1-m-tolylurea]
